Results from patent US20230241126A1 (priority 2022, published 2023).

What was measured:
[1] = tested on: SARS-CoV-2; format: cell-based; conditions: 1-hour contact time at 22 ± 2° C.; versus virus control titer 5.0
[2] = tested on: Vero 76 cells

SMILES: CCO [Ethanol]
- LRV (log reduction value) [1]: >4.3
- Toxicity (highest dilution of the endpoint titer where full (80-100%) cytotoxicity was observed) [2]: None
